Reference: patent US9827208B2, “Antioxidant dietary supplement compositions and methods for maintaining healthy skin” (priority 2004, dated 2017)

What was measured:
[1] = Digestive tolerance of ingested high quantities of antioxidants; assay type: in vivo; conditions: oral
[2] = tested on: skin conditions arising from acne and rosacea; experiment: Effect of oral antioxidant/lycopene compositions on skin conditions (acne, rosacea symptoms); assay type: in vivo, human; conditions: oral administration, methods of treatment of the invention
[3] = cited from earlier work
[4] = Stability of gallic acid as additive in juice and food products; assay type: physicochemical; conditions: acidity about pH 5 or lower

Structure (SMILES) | digestive system problems on ingestion of relatively high quantities [1] | effectiveness in improving skin conditions / suppressing skin ailments [2] | other results
O=C1O[C@H]([C@@H](O)CO)C(O)=C1O [ascorbic acid] | can result in digestive system problems | – | –
CCCOC(=O)c1cc(O)c(O)c(O)c1 [propyl gallate] | – | not effective | –
CC(C)=CCC/C(C)=C/C=C/C(C)=C/C=C/C(C)=C/C=C/C=C(C)/C=C/C=C(C)/C=C/C=C(\C)CCC=C(C)C [lycopene] | – | less effective | bioavailability of lycopene on heating and processing tomatoes into tomato paste ([3]; heating and processing into tomato paste): increases bioavailability; adsorption by humans of lycopene from dietary sources ([3]; humans, dietary sources): ≥ 2,5%; bioavailability of lycopene in presence of oil ([3]; presence of oil): increases bioavailability
COC(=O)c1cc(O)c(O)c(O)c1 [methyl gallate] | – | not effective | –
O=C(O)c1cc(O)c(O)c(O)c1 [gallic acid, trihydroxy benzoic acid] | can result in digestive system problems | – | stability of gallic acid in un-oxidized form in juice/food product [4]: stable
